The test has as its target GRK5 (Homo sapiens, UniProt P34947). Nature of the test: GRK5 phosphorylation of light-activated rhodopsin. Type of test: biochemical. As to conditions: for inhibition at 100 µM: read-out: % Inhibition (100 μM) of GRK5 phosphorylation of rhodopsin; for % Inhibition (100 μM) of GRK5 phosphorylation of rhodopsin: 100 μM peptide, 0.5 μM light-activated rhodopsin, 100 μM ATP, 5 min.

Square brackets hold non-standard residues; d marks the D form. Peptide text beside a SMILES is read from it. Nle = CCCC[C@H](N)C(=O)O

The values below come from paper PMC4269301 (International journal of peptide research and therapeutics, 2014).

GRK5, sequence (P34947 whole entry): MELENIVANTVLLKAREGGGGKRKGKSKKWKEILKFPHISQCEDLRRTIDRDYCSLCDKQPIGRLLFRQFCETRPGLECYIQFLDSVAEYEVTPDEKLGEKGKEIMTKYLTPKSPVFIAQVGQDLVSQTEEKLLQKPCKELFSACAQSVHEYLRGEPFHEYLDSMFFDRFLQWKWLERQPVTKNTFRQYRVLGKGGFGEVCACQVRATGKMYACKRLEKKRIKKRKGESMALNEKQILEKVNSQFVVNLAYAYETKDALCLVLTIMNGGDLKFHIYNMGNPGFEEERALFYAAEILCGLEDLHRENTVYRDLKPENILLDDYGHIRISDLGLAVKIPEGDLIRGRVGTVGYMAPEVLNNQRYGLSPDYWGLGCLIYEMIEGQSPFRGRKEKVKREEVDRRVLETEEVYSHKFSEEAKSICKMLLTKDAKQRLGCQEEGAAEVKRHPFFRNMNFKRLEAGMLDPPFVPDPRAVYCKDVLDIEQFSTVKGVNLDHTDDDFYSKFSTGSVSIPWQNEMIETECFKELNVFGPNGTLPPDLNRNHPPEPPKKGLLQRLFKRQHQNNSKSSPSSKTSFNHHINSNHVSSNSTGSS

Consider `CCCC[C@H](NC(=O)[C@H](CO)NC(C)=O)C(=O)N[C@@H](Cc1ccccc1)C(=O)N[C@@H](Cc1ccccc1)C(=O)N[C@@H](CC(=O)O)C(=O)N[C@@H](CCCNC(=N)N)C(=O)N[C@@H](Cc1ccccc1)C(=O)N[C@@H](CC(C)C)C(=O)N[C@@H](C)C(=O)N[C@@H](Cc1c[nH]c2ccccc12)C(=O)N[C@@H](CCCCN)C(=O)N[C@@H](Cc1c[nH]c2ccccc12)C(=O)N[C@@H](CC(C)C)C(=O)N[C@@H](CCC(=O)O)C(=O)N[C@@H](CCCNC(=N)N)C(N)=O` [Peptide Q172A] (Ac-S[Nle]FFDRFLAWKWLER-NH2), for which the IC50 (in general, the midpoint of a concentration-inhibition curve) was 15.1 ± 7.3 µM and the inhibition (as a rule, the change of the read-out against control, counted positive when it falls) at 100 µM is 95%. The corresponding values for `CCCC[C@H](NC(=O)[C@H](CO)NC(C)=O)C(=O)N[C@@H](Cc1ccccc1)C(=O)N[C@@H](Cc1ccccc1)C(=O)N[C@@H](CC(=O)O)C(=O)N[C@@H](CCCNC(=N)N)C(=O)N[C@@H](Cc1ccccc1)C(=O)N[C@@H](CC(C)C)C(=O)N[C@@H](CCC(N)=O)C(=O)N[C@@H](Cc1c[nH]c2ccccc12)C(=O)N[C@@H](CCCCN)C(=O)N[C@@H](Cc1c[nH]c2ccccc12)C(=O)N[C@@H](CC(C)C)C(N)=O` [Peptide T2] (Ac-S[Nle]FFDRFLQWKWL-NH2) are 5.2 ± 2 µM and 98%. With `CCCC[C@H](NC(=O)[C@H](CO)NC(C)=O)C(=O)N[C@@H](Cc1ccccc1)C(=O)N[C@@H](Cc1ccccc1)C(=O)N[C@@H](CC(=O)O)C(=O)N[C@@H](CCCNC(=N)N)C(=O)N[C@@H](Cc1ccccc1)C(=O)N[C@@H](CC(C)C)C(=O)N[C@@H](CCC(N)=O)C(=O)N[C@@H](Cc1c[nH]c2ccccc12)C(=O)N[C@@H](CCCCN)C(=O)N[C@@H](Cc1c[nH]c2ccccc12)C(N)=O` [Peptide T3] (Ac-S[Nle]FFDRFLQWKW-NH2), the IC50 stood at 6.1 ± 4.4 µM and the inhibition at 100 µM was determined as 97%. In the case of Ac-FFDAFLQWK-NH2 [Peptide T5], the “% Inhibition (100 μM) of GRK5 phosphorylation of rhodopsin” value (“% Inhibition (100 μM)” for short) stood at 22%.

Regarding Ac-FFDRFLQWKWLER-NH2 [Peptide T1], inhibition was half-maximal at 23.9 ± 16 µM (IC50) and the inhibition at 100 µM came out at 95%. Regarding “Ac-S[Nle]AFDRFLQWKWLER-NH2 [Peptide F166A]”, the “% Inhibition (100 μM)” value amounted to 42%. The same measure, in the same setting: next, “Ac-S[Nle]FFDRFLQAKWLER-NH2 [Peptide W173A]”: roughly 26%; Ac-S[Nle]FFDRFLQWK-NH2 [Peptide T4]: 72%. Consider “Ac-S[Nle]FFDRFLQWKWAER-NH2 [Peptide L176A]”, for which the “% Inhibition (100 μM)” value is 74%.
